Like-named read-outs stand apart in the source and are kept apart here.
Columns and labels:
[1] = test system: Mycolicibacterium aurum DSM 43999; test: Antimycobacterial microdilution broth MIC (resazurin), M. aurum; assay type: cell-based; details: DSM43999, read-out: MIC M. aurum
[2] = test system: Trichophyton interdigitale CCM 8377, ATCC 9533; test: Antifungal microdilution broth MIC, TI; details: Trichophyton interdigitale
[3] = test system: Acinetobacter baumannii DSM 30007, ATCC 19606; test: Antibacterial microdilution broth MIC, ACI; assay type: cell-based
[4] = test system: Candida albicans CCM 8320, ATCC 24433; test: Antifungal microdilution broth MIC, CA
[5] = test system: Mycobacterium tuberculosis H37Ra; test: Antimycobacterial microdilution broth MIC (resazurin), Mtb H37Ra; assay type: cell-based; details: for MIC: Mycobacterium tuberculosis, H37RA, read-out: MIC Mtb H37Ra
[6] = test system: Klebsiella pneumoniae CCM 4415, ATCC 10031; test: Antibacterial microdilution broth MIC, KP
[7] = test system: Staphylococcus aureus subsp. aureus CCM 4750, ATCC 43300 (MRSA); test: Antibacterial microdilution broth MIC, MRSA; assay type: cell-based; details: Staphylococcus aureus
[8] = test system: Candida parapsilosis CCM 8260, ATCC 22019; test: Antifungal microdilution broth MIC, CP; details: Lodderomyces parapsilosis
[9] = test system: Mycolicibacterium smegmatis DSM 43465; test: Antimycobacterial microdilution broth MIC (resazurin), M. smegmatis; assay type: cell-based; details: DSM43465, read-out: MIC M. smegmatis
[10] = test system: Escherichia coli CCM 3954, ATCC 25922; test: Antibacterial microdilution broth MIC, EC; assay type: cell-based
[11] = test system: Lichtheimia corymbifera CCM 8077; test: Antifungal microdilution broth MIC, LC
[12] = test system: Enterococcus faecalis CCM 4224, ATCC 29212; test: Antibacterial microdilution broth MIC, EF; assay type: cell-based
[13] = test system: Staphylococcus epidermidis CCM 4418, ATCC 12228; test: Antibacterial microdilution broth MIC, SE; assay type: cell-based
[14] = test system: Candida krusei CCM 8271, ATCC 6258; test: Antifungal microdilution broth MIC, CK; details: Pichia kudriavzevii
[15] = test system: Aspergillus fumigatus ATCC 204305; test: Antifungal microdilution broth MIC, AF
[16] = test system: Staphylococcus aureus CCM 4223, ATCC 29213; test: Antibacterial microdilution broth MIC, SA; assay type: cell-based; details: Staphylococcus aureus
HepG2 cell line = test: Cytotoxicity CellTiter 96, HepG2; assay type: cell-based, human; details: Homo sapiens, HepG2, 24 h, 24 h incubation; ^c compound precipitated in the testing medium; ^d over the limit of tested concentrations
[17] = test system: Pseudomonas aeruginosa CCM 3955, ATCC 27853; test: Antibacterial microdilution broth MIC, PA; assay type: cell-based
[18] = test system: Candida tropicalis CCM 8264, ATCC 750; test: Antifungal microdilution broth MIC, CT
[19] = test system: Aspergillus flavus CCM 8363; test: Antifungal microdilution broth MIC, AFla
[20] = CCM8077, 24 h, read-out: MIC LC 24h
[21] = CCM8077, 48 h, read-out: MIC LC 48h
[22] = ATCC204305, 24 h, read-out: MIC AF 24h
[23] = ATCC204305, 48 h, read-out: MIC AF 48h
[24] = CCM8363, 24 h, read-out: MIC AFla 24h
[25] = CCM8363, 48 h, read-out: MIC AFla 48h

COc1cccc(CC(=O)Nc2ccc(Cl)cn2)c1 [Compound 8, 2-(3-methoxyphenyl)-N-(5-chloropyridin-2-yl)acetamide]
113 µM: MIC ([5]; Calculated from MIC (μg/mL))
> 500 µM: MIC ([3]; 24 h, read-out: MIC ACI 24h) | MIC ([3]; 48 h, read-out: MIC ACI 48h) | MIC ([4]; 24 h, read-out: MIC CA 24h) | MIC ([4]; 48 h, read-out: MIC CA 48h) | MIC KP 24h [6] | MIC KP 48h [6] | MIC ([7]; 24 h, read-out: MIC MRSA 24h) | MIC ([7]; 48 h, read-out: MIC MRSA 48h) | MIC ([8]; 24 h, read-out: MIC CP 24h) | MIC ([8]; 48 h, read-out: MIC CP 48h) | MIC ([10]; 24 h, read-out: MIC EC 24h) | MIC ([10]; 48 h, read-out: MIC EC 48h) | MIC ([12]; 24 h, read-out: MIC EF 24h) | MIC ([12]; 48 h, read-out: MIC EF 48h) | MIC ([13]; 48 h, read-out: MIC SE 48h) | MIC [15, 22] | MIC [15, 23] | MIC ([16]; 48 h, read-out: MIC SA 48h) | MIC ([17]; 24 h, read-out: MIC PA 24h) | MIC ([17]; 48 h, read-out: MIC PA 48h) | MIC ([18]; 24 h, read-out: MIC CT 24h) | MIC ([18]; 48 h, read-out: MIC CT 48h)
158 µM: IC50 (HepG2 cell line)
500 µM: MIC ([2]; 72 h, read-out: MIC TI 72h) | MIC ([2]; 120 h, read-out: MIC TI 120h) | MIC [11, 20] | MIC [11, 21] | MIC ([14]; 24 h, read-out: MIC CK 24h) | MIC ([14]; 48 h, read-out: MIC CK 48h) | MIC ([16]; 24 h, read-out: MIC SA 24h) | MIC [19, 24] | MIC [19, 25]
250 µM: MIC ([13]; 24 h, read-out: MIC SE 24h)
1.4: SI (selectivity index) ([5]; SI = HepG2 IC50 (μM)/MIC MtbH37Ra (μM), calculated for compounds with MIC ≤ 31.25 μg/mL)
> 500 mg/L: MIC [1] | MIC [9]
31.2 mg/L: MIC [5]

O=C(Cc1cccc(C(F)(F)F)c1)Nc1ccccn1 [Compound 25]
500 µM: MIC ([2]; 72 h, read-out: MIC TI 72h) | MIC ([2]; 120 h, read-out: MIC TI 120h)
223 µM: MIC ([5]; Calculated from MIC (μg/mL))
> 500 mg/L: MIC [9]
> 500 µM: MIC ([3]; 24 h, read-out: MIC ACI 24h) | MIC ([3]; 48 h, read-out: MIC ACI 48h) | MIC ([4]; 24 h, read-out: MIC CA 24h) | MIC ([4]; 48 h, read-out: MIC CA 48h) | MIC KP 24h [6] | MIC KP 48h [6] | MIC ([7]; 24 h, read-out: MIC MRSA 24h) | MIC ([7]; 48 h, read-out: MIC MRSA 48h) | MIC ([8]; 24 h, read-out: MIC CP 24h) | MIC ([8]; 48 h, read-out: MIC CP 48h) | MIC ([10]; 24 h, read-out: MIC EC 24h) | MIC ([10]; 48 h, read-out: MIC EC 48h) | MIC [11, 20] | MIC [11, 21] | MIC ([12]; 24 h, read-out: MIC EF 24h) | MIC ([12]; 48 h, read-out: MIC EF 48h) | MIC ([13]; 24 h, read-out: MIC SE 24h) | MIC ([13]; 48 h, read-out: MIC SE 48h) | MIC ([14]; 24 h, read-out: MIC CK 24h) | MIC ([14]; 48 h, read-out: MIC CK 48h) | MIC [15, 22] | MIC [15, 23] | MIC ([16]; 24 h, read-out: MIC SA 24h) | MIC ([16]; 48 h, read-out: MIC SA 48h) | MIC ([17]; 24 h, read-out: MIC PA 24h) | MIC ([17]; 48 h, read-out: MIC PA 48h) | MIC ([18]; 24 h, read-out: MIC CT 24h) | MIC ([18]; 48 h, read-out: MIC CT 48h) | MIC [19, 24] | MIC [19, 25]
62.5 mg/L: MIC [5]
125 mg/L: MIC [1]
724 µM: IC50 (HepG2 cell line)

O=C(Cc1ccc(F)cc1)Nc1ccccn1 [Compound 31]
62.5 mg/L: MIC [9]
125 mg/L: MIC [5]
250 µM: MIC ([13]; 24 h, read-out: MIC SE 24h)
> 500 µM: MIC ([2]; 72 h, read-out: MIC TI 72h) | MIC ([2]; 120 h, read-out: MIC TI 120h) | MIC ([3]; 24 h, read-out: MIC ACI 24h) | MIC ([3]; 48 h, read-out: MIC ACI 48h) | MIC ([4]; 24 h, read-out: MIC CA 24h) | MIC ([4]; 48 h, read-out: MIC CA 48h) | MIC KP 24h [6] | MIC KP 48h [6] | MIC ([7]; 24 h, read-out: MIC MRSA 24h) | MIC ([7]; 48 h, read-out: MIC MRSA 48h) | MIC ([8]; 48 h, read-out: MIC CP 48h) | MIC ([10]; 24 h, read-out: MIC EC 24h) | MIC ([10]; 48 h, read-out: MIC EC 48h) | MIC [11, 20] | MIC [11, 21] | MIC ([12]; 24 h, read-out: MIC EF 24h) | MIC ([12]; 48 h, read-out: MIC EF 48h) | MIC ([13]; 48 h, read-out: MIC SE 48h) | MIC [15, 22] | MIC [15, 23] | MIC ([16]; 48 h, read-out: MIC SA 48h) | MIC ([17]; 24 h, read-out: MIC PA 24h) | MIC ([17]; 48 h, read-out: MIC PA 48h) | MIC ([18]; 24 h, read-out: MIC CT 24h) | MIC ([18]; 48 h, read-out: MIC CT 48h) | MIC [19, 24] | MIC [19, 25]
517 µM: IC50 (HepG2 cell line)
543 µM: MIC ([5]; Calculated from MIC (μg/mL))
250 mg/L: MIC [1]
500 µM: MIC ([8]; 24 h, read-out: MIC CP 24h) | MIC ([14]; 24 h, read-out: MIC CK 24h) | MIC ([14]; 48 h, read-out: MIC CK 48h) | MIC ([16]; 24 h, read-out: MIC SA 24h)

— paper PMC11748363, “Antimicrobial and Antiproliferative Properties of 2‐Phenyl‐N‐(Pyridin‐2‐yl)acetamides” (Chemical Biology & Drug Design, 2025)
